# Data: patent US8754052B2, “Treatment of nephrolithiasis and urolithiasis using 1,2,3,4,6-penta-O-galloyl-beta-D-glucose (PGG)” (Mayo Foundation for Medical Education and Research, priority 2008, dated 2014)
# Tests used:
# MDCK I cells [1] = test: Cytotoxicity assay (MTT colorimetric assay); type: cell-based, Canine
# Protocol: (§1) Renal epithelial cells were of the Madin-Darby Canine kidney (MDCK) line, type I, derived from the distal nephron. Cells were grown in DMEM containing 25 mmol/L glucose at 37° C. in a humidified atmosphere containing […] CO2. To prepare high-density, quiescent cultures at 1×10^6 cells/35-mm plastic plate (9.62 cm^2; Nunc, Naperville, Ill., USA) were performed in DMEM containing 10% fetal bovine serum. Two days later when the cells were confluent, the established monolayer was used in the examples that follow.
# The effect of PGG on cytotoxicity against MDCK 1 cells was evaluated using a MTT (3-(4,5-dimethylthiazol-2-yl)-2,5-diphenyltetrazolium bromide) colorimetric assay. PGG was dissolved with dimethylsulfoxide (DMSO). The cells were seeded onto 96-well microplates at a density of 1×10^4 cells per well in 100 μL of DMEM containing 10% fetal bovine serum. […] Cells were incubated at 37° C. for 1 h and the optical density was measured using a microplate reader (Molecular Devices Co.) set at 570 nm. Cell viability was calculated as the percentage of viable cells in the PGG treated group versus those in the untreated control group using the following equation: cell viability (%)=[OD (PGG)−OD (Blank)/OD (Control)−OD (Blank)]×100.
# [2] = Toxicology study in mice orally fed with PGG; type: in vivo, ICR mice; settings: oral 10, 20 and 40 mg/kg
# Protocol: To examine the optimal dose for animal study, a toxicology study was performed in mice orally fed with PGG (10, 20, and 40 mg/kg). Each group consisted of five ICR mice.
# MDCK I cells [3] = test: Wound healing assay (migration after scrape wounding); type: cell-based, Canine; settings: Canis lupus familiaris, 24 h, FIG. 3, read-out: inhibiting wound healing (migration after scrape wounding)
# Protocol: as §1
# MDCK I cells were seeded in a 35-mm plastic plate to confluent status overnight and incubated with serum-free medium for 6 h. A plastic pipette tip (200 μl size) was used to scrape a line between the MDCK1 cells that was approximately 2 to 3 mm wide across the entire culture dish. The medium was replaced by serum-free medium including various concentrations (1, 5 and 10 μM) of PGG. After incubation at 37° C. for 24 h, each plate was photographed (100×) and quantified.
# MDCK I cells [4] = test: [14C]COM crystal binding assay; type: cell-based, Canine
# Protocol: Calcium oxalate monohydrate (COM) crystals were prepared from supersaturated solutions. To prepare radioactive COM crystals, [^14C]oxalic acid (30-60 mCi/mmol; ICN Biomedicals, Irivine, Calif., USA) was added to a sodium oxalate solution, producing a specific activity of 10^5 cpm/mL, and sufficient calcium chloride was then added to form a supersaturated solution. […] Dulbecco-Vogt modified Eagle's essential medium (DMEM; GIBCO, Life Technologies Inc., NY), antibiotic-antimycotics were purchased from GIBCO (Grand island, NY). Fetal bovine serum (FBS) was from JRH (Lenexa, Kans.). HEPES (N-[2-hydroxyethyl]piperazine-N′-[2-ethanesulfonic acid]), sodium bicarbonate, MTT (3-(4,5-dimethylthiazol-2-yl)-2,5-diphenyltetrazolium bromide, BSA (bovine serum albumin were obtained from Sigma Chemical Co. (St. Louis, Mo.).
# as §1
# MDCK I cells were treated with various concentrations (1, 5 and 10 μM) of PGG for 15 min or 24 h with and without wound damage and washed with phosphate-buffered saline (PBS, pH 7.4). Then [^14C] calcium oxalate monohydrate (COM) crystals were added to MDCK 1 cells, until a final concentration of 200 μg/mL (41.6 μg/cm^2 of cells) was achieved. The culture dishes were gently agitated for 5 seconds to uniformly distribute the crystals so that they settled to the surface of the cell monolayer under the force of gravity. After 2 min, the buffer was aspirated and the cells were washed 3 times with PBS. The cells and adherent crystals were then liquefied in 1 mL of 10% NaOH for 1 h and transferred to a scintillation vial containing 4.5 mL of Ecoscient (National Diagnostics, E. Palmetto, Fla., USA). The amount of radioactivity was measured, as described previously (See Riese, R. J. et al. Am J. Physiol (1992) 262: F177-84). Similarly, to precoat the [^14C]COM crystals with PGG, 0.4 mg [^14C]COM crystals were placed in a 5-mL tube containing 2 mL of a solution containing various concentrations (1, 5 and 10 μM) of PGG diluted in PBS. The crystals were incubated under end-over-end rotation for 15 min at room temperature, pelleted by centrifugation at 2,000 r.p.m. for 5 min, washed with PBS and then resuspended in 2 mL PBS. Two minutes later, the crystal binding activity was measured as described above.
# [5] = tested on: hyperoxaluric wild type rats; test: Ethylene glycol/ammonium chloride induced nephrolithiasis in hyperoxaluric rats; type: in vivo, Harlan Sprague Dawley Rats; settings: for Serum BUN (mean ± SD) / Serum Calcium (mean ± SD) / Serum Creatinine (mean ± SD) / Serum Phosphate (mean ± SD) / Serum Uric acid (mean ± SD): rat serum; for Urine Calcium / Urine Mean Vol ± SD / Urine Mean pH ± SD: rat urine; for Survival (%): rats
# Protocol: Rats were administered PGG, with and without ethylene glycol given to render the rats hyperoxaluric. The effect of PGG on renal crystal deposition was assessed, to confirm the ability of PGG to prevent crystal deposition. Urine of animals was collected and extensively studied to quantitate biochemical and functional changes, and determine the mechanism of the apparent salutary effects, in several studies outlined in Table 1. Functional effects of treated rat urine on crystal nucleation, growth, aggregation and cell interaction was also tested, and compared to urine from control animals.
# Six rats per group were treated (see Table 1 below). Harlan Sprague Dawley Rats (300 g) received 0.8% ethylene glycol and 1% ammonium chloride mixed with the drinking water to induce nephrolithiasis, PGG in 2 different doses (4 mg/kg and 20 mg/kg), or both for a full 4 weeks. The doses of PGG covered the range deemed effective in mouse experiments on angiogenesis over a 2-log range factored for relative body size. PGG was administered to all rats via […]. Urine was collected for chemistries and crystalluria quantification at weekly intervals, with full urinary inhibition studies at 3 weeks, and histologic evaluation after week 3. Kidneys were examined quantitatively for the presence of cortical and medullary crystals, as well as interstitial fibrosis, by a blinded observer. Crystal deposition within cortex and medulla were also quantified under polarizing microscopy using Metamorph software.
# Twenty four-hour rat urine samples were collected in a metabolic cage with sodium azide as a preservative. Urine was centrifuged, the pellet resuspended, and crystal size and quantity assessed in a hemocytometer.
# Spot urine or 24-hr urine samples from individual rats under study were assayed before and after hyperoxaluric treatment. Spot urine samples were collected directly into Eppendorf tubes, centrifuged at 5,000×g for 5 min to dispose of cell debris, and stored at −80° C. until use. Urinary concentrations of oxalate, calcium and other determinants of SS were measured. SS was calculated using the EQUIL2 program.
# Urine chemistry and enzymes were evaluated to measure urine pH, […] clearance, the presence and concentration of oxalate, calcium, citrate, and 8-Hydroxy-2′-deoxyguanosine (8-OH-dG). 8-OH-dG has been regarded as a potential marker of oxidative DNA damage induced by ROS. Urinary 8-OHdG was measured using a commercially available competitive 8-OHdG enzyme-linked immunosorbent assay kit. The number of oxalate crystal deposits in the kidneys was measured using a hematoxylin and eosin stain. Reverse transcriptase PCR (RT-PCR) was used to detect and quantify superoxide dismutase (SOD) mRNA and osteopontin mRNA. Immunohistochemical staining techniques were used to measure SOD and osteopontin protein expression […]. Blood chemistry was also studied to measure levels of creatinine, uric acid, phosphate, blood urea nitrogen (BUN), and malondialdehyde (MDA) in the subjects.
# hyaluronan = test: Hyaluronan expression by confocal microscopy and Western blot; type: cell-based, Canine
# Protocol: A middle line was scraped in the confluent MDCK 1 cells grown on coverslips using a 200 μL plastic pipette tip. The MDCK I cells on coverslips were then exposed to various concentrations (1, 5 and 10 μM) of PGG for 15 minutes or 24 hours at 37° C. The coverslips were rinsed three times with PBS, and fixed using 3.7% formaldehyde in PBS for 15 min. Cells were then rinsed three times with PBS and incubated with 1% goat serum for 1 h to block nonspecific binding sites. The goat serum was aspirated and the cells were incubated for 1 hour in a humidified chamber at 37° C. with biotinylated HABP. The cells were then washed with PBS (10 min×3) and then incubated 1 h with an avidin-conjugated Texas red (Molecular Probes, Eugene, Oreg.) in a humidified chamber at 37° C. Cells were again washed with PBS (10 min×3), and the coverslips were mounted onto glass slides using Slow-Fade (Molecular Probes, Eugene, Oreg.). The XZ section was scanned using a LSM 510 confocal microscope (Carl Zeiss, Oberkochen, Germany) equipped with an Axiovert 100M microscope and a c-Apochromat 63/1.2 numerical aperture water-immersion lens. Texas red was excited at 568-nm of an argon-krypton laser and the Emission for Texas red was collected at >585 nm.
# For Western blotting, MDCK-I cells with or without scrape-wounding 24 hours earlier were harvested and washed with cold PBS; PGG (1, 5, 10 μM) was added to the medium 15 min or 24 hours prior to harvest. Cells were incubated in lysis buffer (50 mM Tris-HCl (pH 7.4), 150 mM NaCl, 1% Triton X-100, 0.1% SDS and 1 mM EDTA) supplemented with protease inhibitors ([…] and 1 mM of 4-(2-aminoethyl) benzenesulfonyl fluoride) and phosphatase inhibitors (1 mM NaF and 1 mM Na3VO4) for 20 min on ice. Lysates were centrifuged at 14,000 g for 20 min at 4° C. Lysates containing […] of protein were fractionated by SDS-PAGE and electrotransferred to a Hybond ECL transfer membrane (Amersham Pharmacia, Arlington Heights, Ill.). The blocked membranes were then incubated with primary antibodies (1:200 dilution) of HABP. […]
smiles,measurement,setting,value
"O=C(OC[C@H]1O[C@@H](OC(=O)c2cc(O)c(O)c(O)c2)[C@H](OC(=O)c2cc(O)c(O)c(O)c2)[C@@H](OC(=O)c2cc(O)c(O)c(O)c2)[C@@H]1OC(=O)c1cc(O)c(O)c(O)c1)c1cc(O)c(O)c(O)c1 [PGG, 1,2,3,4,6-penta-O-galloyl-beta-D-glucose]",cytotoxicity against MDCK I cells,"MDCK I cells [1]; concentrations up to 25 uM, 24 h, FIG. 1",did not exert any significant cytotoxicity
same,cytotoxicity on MDCK I cells (FIG. 1 legend),MDCK I cells [1]; except at high concentrations,lack of cytotoxicity
same,"body weight of mice, PGG versus control groups",[2]; FIG. 7,no significant difference
same,hematological values,[2]; FIG. 9,did not affect
same,GOT and GPT levels,[2]; FIG. 10,did not affect
same,"shapes and weights of organs (spleen, liver, kidney, lung)",[2]; FIGS. 8 and 11,did not affect
same,inhibition at 1 µM,MDCK I cells [3]; 1 μM PGG,2%
same,inhibition at 5 µM,MDCK I cells [3]; 5 μM PGG,26%
same,inhibition at 10 µM,MDCK I cells [3]; 10 μM PGG,49%
same,COM crystal adhesion to MDCK I cells,"MDCK I cells [4]; PGG added to the buffer, concentration-dependent, FIG. 4A",significantly reduced
same,COM adhesion to scrape-wounded MDCK I cells,"MDCK I cells [4]; after 15 min or 24 h incubation time, FIGS. 2A and 2B",significantly inhibited
same,crystal binding by PGG-pretreated MDCK I cells,"MDCK I cells [4]; cells pretreated 15 minutes or 24 hours, FIG. 5",bound less crystals
same,binding of PGG-precoated COM crystals to cells,"MDCK I cells [4]; crystals precoated with PGG 15 min, concentration-dependent, FIG. 4B",decrease their subsequent binding to cells
same,survival rate compared with normal group,[5]; 20 mg/kg PGG,mirrored that of those in the normal group
same,Serum BUN (mean ± SD),[5]; PGG 4 mg/kg + EG,24.6 ± 3.9 mg/dL
same,Serum Calcium (mean ± SD),[5]; PGG 4 mg/kg + EG,10.9 ± 1.1 mg/dL
same,Serum Creatinine (mean ± SD),[5]; PGG 4 mg/kg + EG,0.6 ± 0.5 mg/dL
same,Serum Phosphate (mean ± SD),[5]; PGG 4 mg/kg + EG,10.7 ± 1.4 mg/dL
same,Serum Uric acid (mean ± SD),[5]; PGG 4 mg/kg + EG,2.9 ± 3.2 mg/dL
same,Urine Calcium,[5]; PGG 4 mg/kg + EG,2.95 ± 0.31
same,Urine Mean Vol ± SD,[5]; PGG 4 mg/kg + EG,33.0 ± 3.74 mL
same,Urine Mean pH ± SD,[5]; PGG 4 mg/kg + EG,6.7 ± 1.2
same,Survival (%),[5]; PGG 4 mg/kg,83%
same,Serum BUN (mean ± SD),[5]; PGG 20 mg/kg + EG,23.3 ± 3.7 mg/dL
same,Serum Calcium (mean ± SD),[5]; PGG 20 mg/kg + EG,10.5 ± 0.3 mg/dL
same,Serum Creatinine (mean ± SD),[5]; PGG 20 mg/kg + EG,0.6 ± 0.1 mg/dL
same,Serum Phosphate (mean ± SD),[5]; PGG 20 mg/kg + EG,9.4 ± 0.8 mg/dL
same,Serum Uric acid (mean ± SD),[5]; PGG 20 mg/kg + EG,1.6 ± 1.0 mg/dL
same,Urine Calcium,[5]; PGG 20 mg/kg + EG,3.52 ± 0.31
same,Urine Mean Vol ± SD,[5]; PGG 20 mg/kg + EG,34.7 ± 3.59 mL
same,Urine Mean pH ± SD,[5]; PGG 20 mg/kg + EG,7.1 ± 0.8
same,Survival (%),[5]; PGG 20 mg/kg,100%
same,survival time of the rats,"[5]; upon administration of PGG, FIG. 12 and Table 4",increased
same,number of stones (calcium oxalate in urine) versus stone group,"[5]; urine at 21 days, FIG. 14",considerably less
same,"total cell hyaluronan expression by wounded monolayers (Western blot), effect versus 15 min","hyaluronan; 24 hours exposure, 1-10 μM, FIG. 6B",slightly more pronounced
same,hyaluronan expression on the surface of wounded MDCK 1 cells (confocal microscopy),"hyaluronan; PGG treatment 15 minutes or 24 hours, concentration dependent, FIG. 6A",attenuated
same,total cell hyaluronan expression by wounded monolayers (Western blot),"hyaluronan; within 15 minutes of PGG addition, FIG. 6B",decreased
